Measured values published in ChEMBL document CHEMBL1201862, “PubChem BioAssay data set” (2004).
Where a name gives a salt, the structure may show the parent alone. Active and inactive are the calls of the source.

What was measured:
[1] = Luminescent dose response cell-based high throughput screening assay for inhibitors of the Janus kinase 2 mutant JAK2V617F. [Related pubchem assays: 1446 (Primary screen.), 1521 (Confirmation assay.), 1486 (Counter screen.)]; assay type: functional
[2] = Trypanosoma cruzi growth suppression in host cells – NIH3T3 host cells, beta-gal luminescence, confirmation (AID 2044); assay type: functional, cell-based;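 also: intracellular parasites grown in NIH/3T3 mouse fibroblasts as host cells; luminescent beta-galactosidase reporter signal from transgenic T. cruzi replicating inside host cells; inhibitors lower the luminescence signal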
[3] = NIH3T3 cell viability loss – ATP luminescence, mouse fibroblasts, counter-screen, dose response (AID 2010); assay type: functional, cell-based;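 also: cells exposed to compound for about 90 hours before reading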
HEK293 = assay: EBV LMP1 TES2 canonical NF-kB signalling blockers – cell-based, HEK293, luciferase, cherry-pick, dose response (AID 588343); assay type: functional; conditions: Homo sapiens
[4] = target: ATP-binding cassette sub-family B member 6 (Homo sapiens, UniProt Q9NP58); assay: concentration-dependent ABCB6 porphyrin transport blockade – K562-ABCB6 cells, flow cytometry, cherry pick 1, dose response (AID 623955); assay type: functional; conditions: read-out: EC50_MICROM
ATP-binding cassette sub-family B member 6, sequence (Q9NP58 whole entry): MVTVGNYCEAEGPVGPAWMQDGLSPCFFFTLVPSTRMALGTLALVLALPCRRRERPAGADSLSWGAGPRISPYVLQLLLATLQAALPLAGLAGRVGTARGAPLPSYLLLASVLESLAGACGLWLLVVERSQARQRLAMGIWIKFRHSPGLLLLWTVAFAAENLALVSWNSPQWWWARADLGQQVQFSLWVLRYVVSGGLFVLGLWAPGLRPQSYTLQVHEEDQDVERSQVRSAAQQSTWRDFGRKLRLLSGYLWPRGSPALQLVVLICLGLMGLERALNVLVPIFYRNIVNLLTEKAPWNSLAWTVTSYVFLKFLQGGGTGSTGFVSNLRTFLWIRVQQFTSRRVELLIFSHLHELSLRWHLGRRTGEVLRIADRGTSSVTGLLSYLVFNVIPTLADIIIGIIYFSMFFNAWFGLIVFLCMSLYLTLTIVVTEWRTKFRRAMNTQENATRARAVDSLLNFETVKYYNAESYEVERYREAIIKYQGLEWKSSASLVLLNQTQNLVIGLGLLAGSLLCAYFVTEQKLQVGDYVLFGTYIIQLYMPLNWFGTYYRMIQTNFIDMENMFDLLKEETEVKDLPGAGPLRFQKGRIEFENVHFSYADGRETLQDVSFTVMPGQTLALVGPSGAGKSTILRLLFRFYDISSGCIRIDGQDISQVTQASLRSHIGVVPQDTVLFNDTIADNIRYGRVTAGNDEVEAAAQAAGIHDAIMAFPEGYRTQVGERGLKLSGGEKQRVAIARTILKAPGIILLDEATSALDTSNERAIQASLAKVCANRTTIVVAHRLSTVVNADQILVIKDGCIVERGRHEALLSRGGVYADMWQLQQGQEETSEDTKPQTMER

[5] = HEK-293T viability loss after treatment – luminescence, T-cell screen hits, cytotoxicity control for TCR NF-kB inhibitor project, dose response (AID 489026); assay type: functional, cell-based;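 also: cells exposed to compound about 14 hours before the viability readout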
Nonstructural protein 1 = Nonstructural protein 1 (Influenza A virus, UniProt Q194T2); assay type: functional, Influenza A virus (A/California/07/2009(H1N1))
Nonstructural protein 1, sequence (Q194T2 whole entry): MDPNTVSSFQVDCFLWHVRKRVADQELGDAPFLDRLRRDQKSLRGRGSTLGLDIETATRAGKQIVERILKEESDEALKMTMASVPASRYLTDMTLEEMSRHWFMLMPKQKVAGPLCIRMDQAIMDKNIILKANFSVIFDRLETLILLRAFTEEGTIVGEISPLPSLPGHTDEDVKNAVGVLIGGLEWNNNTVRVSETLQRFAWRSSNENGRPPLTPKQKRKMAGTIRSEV

[6] = target: Dual specificity tyrosine-phosphorylation-regulated kinase 1A (Rattus norvegicus, UniProt Q63470); assay type: biochemical, Homo sapiens
[7] = reduction of Shn3 3'UTR-driven luciferase in osteoblasts – cell-based, Clone20 osteoblasts, firefly luciferase, cherry-picked, dose response (AID 624132); assay type: functional;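 also: firefly luciferase luminescence from reporter carrying the Shn3 3'UTR in osteoblasts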
P388/ADR = assay: cells; assay type: functional; conditions: Mus musculus
[8] = loss of viability in HepG2 cells – cell-based, CellTiter-Glo, cherry-picked, cytotoxicity control for Shn3 inhibitor project, dose response (AID 624134); assay type: functional
[9] = non-specific 3'UTR reporter inhibition in Clone20-Shn3RL – cell-based, Renilla luciferase, cherry-picked, counter-screen for Shn3 inhibitor project, dose response (AID 624133); assay type: functional
SN12K1 = assay: cells; assay type: functional; conditions: Homo sapiens
P388 = assay: cells; assay type: functional; conditions: Mus musculus
[10] = target: T1, Rac GTPase-activating protein 1 (Homo sapiens, UniProt Q9H0H5); assay: blockers of MgcRacGAP-driven Rac1 GTP hydrolysis – biochemical, ADP Hunter fluorescence, primary and confirmatory, confirmation (AID 624330); assay type: functional
T1 sequence (Q9H0H5 whole entry): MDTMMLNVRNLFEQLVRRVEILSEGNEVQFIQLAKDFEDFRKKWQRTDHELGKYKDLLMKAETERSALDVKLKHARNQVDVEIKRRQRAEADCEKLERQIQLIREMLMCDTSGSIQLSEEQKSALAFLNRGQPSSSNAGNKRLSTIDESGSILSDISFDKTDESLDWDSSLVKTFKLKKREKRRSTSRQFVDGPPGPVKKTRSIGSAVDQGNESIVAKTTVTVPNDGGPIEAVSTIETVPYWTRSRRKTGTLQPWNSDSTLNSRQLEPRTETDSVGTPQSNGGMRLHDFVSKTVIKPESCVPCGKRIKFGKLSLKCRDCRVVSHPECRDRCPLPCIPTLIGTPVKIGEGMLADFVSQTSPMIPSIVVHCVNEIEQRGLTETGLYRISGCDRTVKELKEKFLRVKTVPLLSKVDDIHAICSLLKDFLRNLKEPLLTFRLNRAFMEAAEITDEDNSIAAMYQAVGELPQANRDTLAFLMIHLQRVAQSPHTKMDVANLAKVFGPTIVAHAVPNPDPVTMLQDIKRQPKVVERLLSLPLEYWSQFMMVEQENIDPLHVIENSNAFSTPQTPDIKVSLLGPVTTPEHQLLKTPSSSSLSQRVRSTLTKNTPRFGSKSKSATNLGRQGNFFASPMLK

[11] = target: T2, DNA repair protein RAD52 homolog (Homo sapiens, UniProt P43351); assay type: functional, biochemical
T2 sequence (P43351 whole entry): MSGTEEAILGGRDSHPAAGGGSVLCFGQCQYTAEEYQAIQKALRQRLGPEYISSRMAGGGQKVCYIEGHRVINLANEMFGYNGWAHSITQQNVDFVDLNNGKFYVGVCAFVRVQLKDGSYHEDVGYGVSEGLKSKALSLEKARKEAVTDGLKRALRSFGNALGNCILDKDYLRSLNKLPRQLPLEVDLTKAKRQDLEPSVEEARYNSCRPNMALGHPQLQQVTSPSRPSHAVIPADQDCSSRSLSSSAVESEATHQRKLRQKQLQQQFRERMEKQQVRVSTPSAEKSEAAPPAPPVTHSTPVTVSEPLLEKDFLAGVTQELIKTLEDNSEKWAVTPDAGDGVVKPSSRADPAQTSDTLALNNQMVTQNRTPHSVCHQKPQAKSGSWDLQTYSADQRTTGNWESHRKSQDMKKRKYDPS

Paired box protein Pax-8 = Paired box protein Pax-8 (Homo sapiens, UniProt Q06710); assay: PAX8 transcriptional activity inhibition in RMG-I – RMG-I cells, luciferase, cherry-pick, dose response (AID 687027); assay type: functional, cell-based;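 also: luciferase reporter driven by Pax8 target thyroperoxidase promoter measured by SteadyGlo luminescence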
Paired box protein Pax-8, sequence (Q06710 whole entry): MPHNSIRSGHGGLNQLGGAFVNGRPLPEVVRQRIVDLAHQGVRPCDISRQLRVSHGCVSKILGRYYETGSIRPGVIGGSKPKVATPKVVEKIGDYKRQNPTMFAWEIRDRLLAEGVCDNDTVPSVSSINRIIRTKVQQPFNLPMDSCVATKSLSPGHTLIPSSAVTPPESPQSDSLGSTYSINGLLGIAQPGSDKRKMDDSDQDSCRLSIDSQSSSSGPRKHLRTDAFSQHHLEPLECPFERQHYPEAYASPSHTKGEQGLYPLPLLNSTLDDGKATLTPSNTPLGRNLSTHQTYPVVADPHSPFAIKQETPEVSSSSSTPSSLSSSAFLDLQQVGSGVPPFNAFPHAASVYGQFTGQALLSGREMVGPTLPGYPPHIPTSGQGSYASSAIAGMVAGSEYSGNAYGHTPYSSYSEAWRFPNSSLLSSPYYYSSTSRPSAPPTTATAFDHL

[12] = HGIII-sPLA2 enzyme inhibition potency – biochemical, QFRET, IC50, dose response (AID 743457);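 also: green fluorescence rise as the enzyme cleaves BODIPY PC-A2 in liposomes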
[13] = rise of 2N DNA cells, HeLa – IC50, dose response (AID 1117349); assay type: functional, cell-based
[14] = CellTiter-Glo luminescence survival assay, SW480 colon tumor line, concentration-response curve, half-maximal inhibitory concentration (AID 1117338); assay type: functional
[15] = RKO cell viability reduction, dose response, CellTiter-Glo luminescence (AID 1117322); assay type: functional
[16] = cytotoxicity toward HCT116 cells – cell-based, CellTiter-Glo luminescence, IC50, dose response (AID 1117332); assay type: functional; conditions: HCT-116
[17] = SNU-C1 cell viability reduction, dose response, CellTiter-Glo luminescence (AID 1117323); assay type: functional, cell-based
[18] = viability loss in THP-1 monocytes – THP-1 cells, cytotoxicity control for Vif-APOBEC3G degradation inhibitor project, dose response (AID 1117359); assay type: functional; conditions: THP-1
[19] = target: Glutathione-S-transferase (Schistosoma japonicum, UniProt Q26513); assay: GST-antibody interaction or FRET quenching – biochemical, TR-FRET, artefact control for Vif-APOBEC3G degradation inhibitor project, dose response (AID 1117362); assay type: functional
Glutathione-S-transferase, sequence (Q26513 whole entry): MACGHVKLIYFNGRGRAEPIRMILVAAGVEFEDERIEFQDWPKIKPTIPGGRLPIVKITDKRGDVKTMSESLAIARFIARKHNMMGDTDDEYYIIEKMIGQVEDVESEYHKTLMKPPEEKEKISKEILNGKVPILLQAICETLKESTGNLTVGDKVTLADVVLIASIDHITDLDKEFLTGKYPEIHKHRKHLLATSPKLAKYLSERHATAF

[20] = rise of 4N DNA cells, HeLa – IC50, dose response (AID 1117351); assay type: functional, cell-based
[21] = Reduced DLD-1 viability, concentration-response, CellTiter-Glo luminescence (AID 1117352); assay type: functional
[22] = HCT116 cell viability decrease, GSK3B pretreatment – CellTiter-Glo, IC50, dose response (AID 1117339); assay type: functional; conditions: HCT-116
[23] = IC50 of insulin release inhibition, rat insulinoma INS-1E line, 5 mM glucose, cell-based (AID 1117331); assay type: functional
cells = assay type: functional, cell-based; conditions: INS-1E
[24] = target: 5-hydroxytryptamine receptor 1A (Homo sapiens, UniProt P08908); assay type: functional
5-hydroxytryptamine receptor 1A, sequence (P08908 whole entry): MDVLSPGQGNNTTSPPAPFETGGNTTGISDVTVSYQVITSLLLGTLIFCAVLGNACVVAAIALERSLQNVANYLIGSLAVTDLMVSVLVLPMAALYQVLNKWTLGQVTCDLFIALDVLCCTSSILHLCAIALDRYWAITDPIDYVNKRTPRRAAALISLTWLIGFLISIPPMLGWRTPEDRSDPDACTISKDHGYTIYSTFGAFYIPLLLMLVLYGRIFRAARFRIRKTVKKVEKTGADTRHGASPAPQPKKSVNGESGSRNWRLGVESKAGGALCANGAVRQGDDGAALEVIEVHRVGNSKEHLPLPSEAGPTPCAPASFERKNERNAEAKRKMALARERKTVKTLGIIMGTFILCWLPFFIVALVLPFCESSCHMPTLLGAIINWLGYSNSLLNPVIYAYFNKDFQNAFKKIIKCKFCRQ

[25] = Luminescence Cell-Based Dose Response to Identify Activators of 5'UTR Stem-Loop Driven Prion Protein mRNA Translation in H4-C Neuroglioblastoma Cells. [Related pubchem assays: 1829 (Project Summary), 1814 (Primary HTS)]; assay type: functional
[26] = Luminescence Cell-Based Dose Response HTS to Identify Activators of Luciferase Translation or Activity in H4 […] Cells. [Related pubchem assays: 1829 (Project Summary), 1814 (Primary HTS)]; assay type: functional
H4 = assay: Luminescence Cell-Based Dose Response HTS to Identify Activators of 5'UTR Stem-Loop Driven Prion Protein mRNA Translation in H4 Neuroglioblastoma Cells. [Related pubchem assays: 1829 (Project Summary), 1814 (Primary HTS)]; assay type: functional; conditions: Homo sapiens
[27] = Luminescence Cell-Based Dose Response to Identify Activators of Luciferase Translation or Activity in H4-C Neuroglioblastoma Cells. [Related pubchem assays: 1829 (Project Summary), 1814 (Primary HTS)]; assay type: functional
[28] = target: Potassium voltage-gated channel subfamily KQT member 2 (Rattus norvegicus, UniProt O88943, W236L); assay: potentiation of rat KCNQ2 current – cell-based, automated electrophysiology, mechanism study for KCNQ2 potentiator project, dose response (AID 2603); assay type: functional
Potassium voltage-gated channel subfamily KQT member 2, sequence (O88943 whole entry W236L): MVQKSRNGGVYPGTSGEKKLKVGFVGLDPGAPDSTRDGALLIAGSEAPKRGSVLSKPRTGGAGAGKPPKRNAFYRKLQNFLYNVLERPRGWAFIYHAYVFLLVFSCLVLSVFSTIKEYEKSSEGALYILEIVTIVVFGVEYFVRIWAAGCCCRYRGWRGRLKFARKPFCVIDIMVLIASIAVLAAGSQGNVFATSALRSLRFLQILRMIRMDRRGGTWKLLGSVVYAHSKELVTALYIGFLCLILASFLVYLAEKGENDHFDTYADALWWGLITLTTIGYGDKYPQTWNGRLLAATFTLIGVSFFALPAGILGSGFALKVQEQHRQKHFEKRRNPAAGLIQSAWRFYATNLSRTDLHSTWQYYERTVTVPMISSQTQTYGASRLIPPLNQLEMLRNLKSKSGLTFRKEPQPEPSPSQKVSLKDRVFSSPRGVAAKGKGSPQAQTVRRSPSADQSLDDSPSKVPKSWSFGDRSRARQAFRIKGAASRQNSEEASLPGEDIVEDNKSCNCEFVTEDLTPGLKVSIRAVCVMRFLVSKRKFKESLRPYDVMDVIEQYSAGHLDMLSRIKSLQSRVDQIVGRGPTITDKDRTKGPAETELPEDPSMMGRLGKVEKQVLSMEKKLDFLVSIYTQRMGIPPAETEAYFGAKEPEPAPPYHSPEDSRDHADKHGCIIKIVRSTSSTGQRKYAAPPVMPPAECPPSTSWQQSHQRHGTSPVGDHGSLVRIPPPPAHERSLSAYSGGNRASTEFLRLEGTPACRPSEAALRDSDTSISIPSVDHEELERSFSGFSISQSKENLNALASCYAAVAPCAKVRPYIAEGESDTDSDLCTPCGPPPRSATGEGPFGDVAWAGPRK

[29] = Luminescence Cell-Based Dose Confirmation to Identify Activators of 5'UTR Stem-Loop Driven Alpha-Synuclein mRNA Translation in H4 Neuroglioblastoma Cells. [Related pubchem assays: 1829 (Project Summary), 1814 (Primary HTS)]; assay type: functional
[30] = target: Solute carrier family 12 member 2/member 5 (Homo sapiens, UniProt P55011+Q9H2X9); assay: KCC2 and NKCC1 inhibition by rubidium flux, cell-based, NKCC1 counter-screen (AID 1734); assay type: functional, HEK293
Vero = assay: inhibition of WNV-induced cytopathic effect – cell-based, CPE readout (AID 1621); assay type: functional; conditions: Chlorocebus sabaeus

CCN(CC)S(=O)(=O)c1cccc(N2C(=O)/C(=C\Nc3ccccc3C(=O)O)c3ccccc3C2=O)c1
IC50 [1]: > 40 µM (not active)
EC50 [2]: 13.7 µM (active)
EC50 [3]: > 60 µM (not active)
AC50 (HEK293): 167 nM (active)
EC50 [4]: 210 nM (active)

O=C1c2c(O)ccc(O)c2C(=O)c2c(NCCNCCO)ccc(NCCNCCO)c21 [MITOXANTRONE HYDROCHLORIDE]
IC50 [5]: 37.9 µM (inactive)
IC50 (Nonstructural protein 1): 1.1 µM (active)
AC50 [6]: 9.51 µM (active)
AC50 [7]: 658 nM (active)
GI50 (P388/ADR): 22.2 nM (active)
AC50 [8]: 535 nM (active)
AC50 [9]: 33.6 µM (active)
GI50 (SN12K1): 5.3 nM (active)
GI50 (P388): 3.55 nM (active)
IC50 [10]: 14.8 µM (active)
AC50 [11]: < 150 nM (active)
AC50 (Paired box protein Pax-8): 690 nM (active)
IC50 [12]: > 122 µM (inactive)
IC50 [13]: > 10 µM (inactive)
IC50 [14]: 1.83 µM (active)
IC50 [15]: 1.03 µM (active)
IC50 [16]: 1.23 µM (active)
IC50 [17]: 1.72 µM (active)
CC50 [18]: < 80 nM (active)
IC50 [19]: 3.85 µM (active)
IC50 [20]: > 10 µM (inactive)
IC50 [21]: 1.6 µM (active)
IC50 [22]: 1 nM (active)

Cc1ccc(S(=O)(=O)NC(=O)NN2CC3CCCC3C2)cc1 (stereo unspecified) [GLICLAZIDE]
IC50 [13]: > 10 µM (inactive)
IC50 [23]: 1.83 µM (active)
IC50 (cells): > 33.3 µM (inactive)
IC50 [20]: > 10 µM (inactive)

Cc1[nH]c2c(Cl)cccc2c1CCN
EC50 [24]: > 50 µM (not active)

Cc1ccc(NC(=O)NCC2CC2(Cl)Cl)cc1 (stereo unspecified)
EC50 [25]: > 12 µM (not active)
EC50 [26]: 226 nM (active)
EC50 (H4): 8.76 µM (active)
EC50 [27]: 399 nM (active)
EC50 [28]: 2.17 µM (active)
EC50 [29]: 1.72 µM (active)

O=C(Nc1ccc(S(=O)(=O)NCc2ccccc2)cc1)c1ccccc1[N+](=O)[O-]
IC50 [30]: 5.1 µM (active)

Cc1ccc2nc(O)c(CN(CCCN(C)C)C(=O)Nc3ccc(Cl)cc3)cc2c1
IC50 (Vero): 17.8 µM (active)
